In US11111251B2, “Positive allosteric modulators of the muscarinic acetylcholine receptor M1” (Vanderbilt University, priority 2016, dated 2021):
Like-named read-outs stand apart in the source and are kept apart here.

Biological target: T1, human mAChR M1 (Homo sapiens, UniProt P11229)
T1 sequence (P11229 1-460): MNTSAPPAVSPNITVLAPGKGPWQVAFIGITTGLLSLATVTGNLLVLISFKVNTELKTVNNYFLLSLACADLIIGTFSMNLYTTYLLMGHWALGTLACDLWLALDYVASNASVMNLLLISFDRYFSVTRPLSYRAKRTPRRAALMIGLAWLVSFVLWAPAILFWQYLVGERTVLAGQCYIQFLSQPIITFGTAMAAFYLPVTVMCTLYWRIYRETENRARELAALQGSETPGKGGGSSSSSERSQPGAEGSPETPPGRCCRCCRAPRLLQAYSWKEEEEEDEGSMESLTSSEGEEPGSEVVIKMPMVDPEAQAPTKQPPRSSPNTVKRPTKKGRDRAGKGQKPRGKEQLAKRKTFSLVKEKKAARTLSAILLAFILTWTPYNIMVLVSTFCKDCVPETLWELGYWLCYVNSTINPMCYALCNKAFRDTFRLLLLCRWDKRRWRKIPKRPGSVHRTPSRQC
Assay: mAChR M1 cell-based functional assay: calcium mobilization, positive allosteric modulator mode (increase in EC20 acetylcholine response)
Details: for Emax: read-out: Human M1 Emax (%)
How it was run: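 PAM potency reflects the concentration-dependent increase in calcium response to an EC20 acetylcholine challenge, given 144 s into a 300 s read after compound addition at 4 s (EC80 follows at 230 s). Cells were hM1-expressing CHO-K1, loaded 50 min with Fluo-4 AM. Curves used 11 points at 1:3 dilutions and four-parameter logistic fitting.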

[1] = Table 2, human M1, read-out: Human M1 EC50
[2] = Table 1, mAChR M1 cell-based functional assay, PAM mode, species not given, read-out: EC50

| Structure (SMILES) | EC50 [1] [nM] | Emax (Table 2, human M1) [%] | EC50 [2] [nM] |
| --- | --- | --- | --- |
| Cn1ccc2nc(C(=O)N[C@@H]3CCOC3)cc(Cc3ccc(-c4cscn4)cc3)c21 [Compound 465, 1-methyl-N-[(3R)-tetrahydrofuran-3-yl]-7-[(4-thiazol-4-ylphenyl)methyl]pyrrolo[3,2-b]pyridine-5-carboxamide] | 1870 | 72 |  |
| Cc1ncc(Cc2cc(C(=O)NC3CCOCC3)nc3ccsc23)s1 [Compound 135, 7-[(2-methylthiazol-5-yl)methyl]-N-tetrahydropyran-4-yl-thieno[3,2-b]pyridine-5-carboxamide] | > 10000 | 60.9 |  |
| Cc1csc2c(Cc3ccc(-n4cccn4)cc3)cc(C(=O)N[C@H]3CCOC3)nc12 [Compound 317, 3-methyl-7-[(4-pyrazol-1-ylphenyl)methyl]-N-[(3S)-tetrahydrofuran-3-yl]thieno[3,2-b]pyridine-5-carboxamide] | 1680 | 43.1 |  |
| Cc1ncc(Cc2cc(C(=O)NC3C4CC5CC3CC(O)(C5)C4)nc3ccsc23)s1 [Compound 142, N-(1S)-5-hydroxy-2-adamantyl]-7-[(2-methylthiazol-5-yl)methyl]thieno[3,2-b]pyridine-5-carboxamide] | 4950 | 23.9 |  |
| Cc1ccc(Oc2cc(C(=O)NCC(C)(C)O)nc3ccsc23)cn1 [Compound 32, N-(2-hydroxy-2-methyl-propyl)-7-[(6-methyl-3-pyridyl)oxy]thieno[3,2-b]pyridine-5-carboxamide] |  |  | > 10000 |
| CC1(NC(=O)c2cc(Cc3ccc(-n4cccn4)cc3)c3sccc3n2)COC1 [Compound 276, N-(3-methyloxetan-3-yl)-7-[(4-pyrazol-1-ylphenyl)methyl]thieno[3,2-b]pyridine-5-carboxamide] | 5500 | 64.5 |  |
| COC1CC(NC(=O)c2cc(Cc3ccc(-n4cccn4)cc3)c3sccc3n2)C1 (centres unmarked) [Compound 431, N-(3-methoxycyclobutyl)-7-[(4-pyrazol-1-ylphenyl)methyl]thieno[3,2-b]pyridine-5-carboxamide] | 1480 | 69.3 |  |
| Cc1cc2nc(C(=O)N[C@H]3CCC[C@@H]3O)cc(Cc3ccc(-n4cccn4)cc3)c2s1 [Compound 236, N-[(1S,2S)-2-hydroxycyclopentyl]-2-methyl-7-[(4-pyrazol-1-ylphenyl)methyl]thieno[3,2-b]pyridine-5-carboxamide] | 2680 | 78.2 |  |
| CC(C)(C)N1CC(NC(=O)c2cc(Cc3ccc(-n4cccn4)cc3)c3sccc3n2)C1 [Compound 434, N-(1-tert-butylazetidin-3-yl)-7-[(4-pyrazol-1-ylphenyl)methyl]thieno[3,2-b]pyridine-5-carboxamide] | 1460 | 66.2 |  |
| O=C(NC1CC(F)C1)c1cc(Cc2ccc(-c3cscn3)cc2)c2sccc2n1 (centres unmarked) [Compound 205, N-(3-fluorocyclobutyl)-7-[(4-thiazol-4-ylphenyl)methyl]thieno[3,2-b]pyridine-5-carboxamide] | 1720 | 78 |  |
| CO[C@@H]1CCCC[C@H]1NC(=O)c1cc(Cc2ccc(-n3cccn3)cc2)c2sccc2n1 [Compound 76, N-[(1R,2R)-2-methoxycyclohexyl]-7-[(4-pyrazol-1-ylphenyl)methyl]thieno[3,2-b]pyridine-5-carboxamide] | 739 | 67.6 |  |
| Cc1csc2c(Cc3ccc(-n4cccn4)cc3)cc(C(=O)N[C@@H]3CCOC3)nc12 [Compound 316, 3-methyl-7-[(4-pyrazol-1-ylphenyl)methyl]-N-[(3R)-tetrahydrofuran-3-yl]thieno[3,2-b]pyridine-5-carboxamide] | 1090 | 56.5 |  |
| Cc1csc2c(Cc3ccc(-c4ccn(C)n4)cc3)cc(C(=O)N[C@H]3CCC[C@@H]3O)nc12 [Compound 303, N-[(1S,2S)-2-hydroxycyclopentyl]-3-methyl-7-[[4-(1-methylpyrazol-3-yl)phenyl]methyl]thieno[3,2-b]pyridine-5-carboxamide] | 366 | 70.7 |  |
| Cc1csc2c(Cc3ccc(-n4cccn4)cc3)cc(C(=O)N[C@@H]3CCCCC[C@H]3O)nc12 [Compound 120, N-[(1R,2R)-2-hydroxycycloheptyl]-3-methyl-7-[(4-pyrazol-1-ylphenyl)methyl]thieno[3,2-b]pyridine-5-carboxamide] | 1320 | 75.3 |  |
| Cc1ccc(Cc2cc(C(=O)N[C@H]3CCCCC[C@@H]3O)nc3ccsc23)cn1 [Compound 47, N-[(1S,2S)-2-hydroxycycloheptyl]-7-[(6-methyl-3-pyridyl)methyl]thieno[3,2-b]pyridine-5-carboxamide] |  |  | 117 |
| Cc1nn(C)c(C)c1-c1ccc(Cc2cc(C(=O)NC3CC4(COC4)C3)nc3ccsc23)cc1 [Compound 241, N-(2-oxaspiro[3.3]heptan-6-yl)-7-[[4-(1,3,5-trimethylpyrazol-4-yl)phenyl]methyl]thieno[3,2-b]pyridine-5-carboxamide] | > 10000 | 18.8 |  |

More lines, now with the values ahead:

| EC50 [1] [nM] | Emax (Table 2, human M1) [%] | EC50 [2] [nM] | Structure (SMILES) |
| --- | --- | --- | --- |
| 339 | 71.9 |  | Cn1ccc2nc(C(=O)NC3CC4(COC4)C3)cc(Cc3ccc(-c4cscn4)cc3)c21 [Compound 452, 1-methyl-N-(2-oxaspiro[3.3]heptan-6-yl)-7-[(4-thiazol-4-ylphenyl)methyl]pyrrolo[3,2-b]pyridine-5-carboxamide] |
| 64.3 | 58.4 |  | Cn1cc(-c2ccc(Cc3cc(C(=O)NC4CCOC(C)(C)C4)nc4ccsc34)cn2)cn1 (centres unmarked) [Compound 336, N-(2,2-dimethyltetrahydropyran-4-yl)-7-[[6-(1-methylpyrazol-4-yl)-3-pyridyl]methyl]thieno[3,2-b]pyridine-5-carboxamide] |
| 142 | 71.6 |  | Cn1ccc(-c2ccc(Cc3cc(C(=O)NC4CCOCC4)nc4ccsc34)cc2)n1 [Compound 254, 7-[[4-(1-methylpyrazol-3-yl)phenyl]methyl]-N-tetrahydropyran-4-yl-thieno[3,2-b]pyridine-5-carboxamide] |
| 154 | 90.7 |  | O=C(N[C@@H]1CCCC[C@H]1O)c1cc(Cc2ccc(C(F)(F)F)nc2)c2sccc2n1 [Compound 90, N-[(1R,2R)-2-hydroxycyclohexyl]-7-[[6-(trifluoromethyl)-3-pyridyl]methyl]thieno[3,2-b]pyridine-5-carboxamide] |
| 116 | 89.4 |  | O=C(N[C@@H]1CC[C@H]1O)c1cc(Cc2ccc(-c3cscn3)cc2)c2sccc2n1 [Compound 200, N-[(1R,2R)-2-hydroxycyclobutyl]-7-[(4-thiazol-4-ylphenyl)methyl]thieno[3,2-b]pyridine-5-carboxamide] |
| 4.74 | 59.8 |  | Cn1cc(-c2ccc(Cc3cc(C(=O)N[C@@H]4CCOC[C@H]4O)nc4ccsc34)cc2)nn1 [Compound 153, N-[(3S,4R)-3-hydroxytetrahydropyran-4-yl]-7-[[4-(1-methyltriazol-4-yl)phenyl]methyl]thieno[3,2-b]pyridine-5-carboxamide] |
| 310 | 87.2 |  | O=C(NC1CCCNC1=O)c1cc(Cc2ccc(-n3cccn3)cc2)c2sccc2n1 (centres unmarked) [Compound 78, N-(2-oxo-3-piperidyl)-7-[(4-pyrazol-1-ylphenyl)methyl]thieno[3,2-b]pyridine-5-carboxamide] |
| 164 | 86.8 |  | Cc1ccc(Cc2cc(C(=O)N[C@@H]3CCOC[C@H]3O)nc3c(C)csc23)cn1 [Compound 104] |
| 24.2 | 70 |  | Cn1cc(-c2ccc(Cc3cc(C(=O)N[C@@H]4CCCCC[C@H]4O)nc4ccsc34)cc2)nn1 [Compound 157, N-[(1R,2R)-2-hydroxycycloheptyl]-7-[[4-(1-methyltriazol-4-yl)phenyl]methyl]thieno[3,2-b]pyridine-5-carboxamide] |
| 255 | 87.7 |  | CCOC(c1ccc(C)nc1)c1cc(C(=O)N[C@@H]2CCCC[C@H]2O)nc2ccsc12 (stereo partly drawn) [Compound 86, 7-[ethoxy-(6-methyl-3-pyridyl)methyl]-N-[(1R,2R)-2-hydroxycyclohexyl]thieno[3,2-b]pyridine-5-carboxamide] |
| 15.3 | 78.7 |  | Cc1nc(-c2ccc(Cc3cc(C(=O)N[C@H]4CCOC[C@@H]4O)nc4ccsc34)cc2)cs1 [Compound 192, N-[(3R,4S)-3-hydroxytetrahydropyran-4-yl]-7-[[4-(2-methylthiazol-4-yl)phenyl]methyl]thieno[3,2-b]pyridine-5-carboxamide] |
| 131 | 87.4 |  | Cn1cc(-c2ccc(Cc3cc(C(=O)NC[C@H]4CCCO4)nc4ccsc34)cn2)cn1 [Compound 339, 7-[[6-(1-methylpyrazol-4-yl)-3-pyridyl]methyl]-N-[[(2R)-tetrahydrofuran-2-yl]methyl]thieno[3,2-b]pyridine-5-carboxamide] |
| 98.1 | 60.4 |  | Cn1cc(-c2ccc(Cc3cc(C(=O)NC4CCOC(C)(C)C4)nc4ccsc34)cc2)cn1 (centres unmarked) [Compound 381, N-(2,2-dimethyltetrahydropyran-4-yl)-7-[[4-(1-methylpyrazol-4-yl)phenyl]methyl]thieno[3,2-b]pyridine-5-carboxamide] |
